Reference: patent US20120270844A1, “METHODS FOR TREATING ALZHEIMER'S DISEASE” (aFRAXis, Inc., priority 2009, published 2012)

Assays:
Type in all cases: biochemical
PAK1 = PAK1 (Homo sapiens, UniProt Q13153); experiment: Z'Lyte fluorescence-based (FRET) PAK kinase assay, PAK1; details: 50 μM ATP
Description: (§1) A fluorescence-based assay format is used to determine IC50 values of test compounds in vitro. Purified PAK kinase is incubated with ATP, and a test compound at various concentrations and a substrate peptide containing two fluorophores. In a second step, the reaction mix is incubated with a site-specific protease that cleaves non-phosphorylated bat not phosphorylated substrate peptide, disrupting the FRET signal generated by the two fluorophores in the cleaved peptide (Z′Lyte™ Kinase assay platform; Life Technologies).
(§2) Reagents: 50 mM HEPES, pH 7.5; 0.01% BRIJ-35; 10 nM MgCl1; 1 mM EGTA, 2 uM substrate peptide Ser/Thr20 (proprietary Life Technologies Sequence), PAK enzyme [2.42-30.8 ng for PAK1, 0.29-6 ng for PAK2, 1.5-20 ng for PAK3 and 0.1-0.86 ng for PAK4; actual enzyme amounts depend on lot activity of the enzyme preparation]
(§3) Test compounds are dissolved in DMSO at various concentrations; the final DMSO concentration in the assay reaction is 1%.
(§4) ATP concentration at Kin apparent is used in the assay [50 ┌M ATP for PAK1 assay, 75 ┌M ATP for PAK2 assay, 100 μM ATP for PAK3 assay, 5 μM ATP for PAK4 assay] in a total assay volume of 10 μl. Assay reactions are incubated at room temperature for 1 hr. Following the kinase reaction, 5 μl of 1:256 dilution of development solution A (Life Technologies) is added and the reaction mix is incubated for an additional 1 hr at room temperature.
(§5) Plates are analyzed in a standard fluorescence plate reader (Tecan or equivalent) using an excitation wavelength of 400 nn and emission wavelengths of 445 nm and 520 nm.
(§6) Inhibition of kinase reaction is determined by emission ratio=emission@445 nm/emission@520 nm
as §1, with “non-phosphorylated but” for “non-phosphorylated bat”, “peptide (Z'Lyte™” for “peptide (Z′Lyte™”, “assay platform” for “assay platform;”
as §2, with “mM MgCl2;” for “nM MgCl1;”
as §4, with “at Km” for “at Kin”, “[50 μMATP” for “[50 ┌M ATP”, “75 µM” for “75 ┌M”, “[…]” for “10 μl.”, “kinase reaction.” for “kinase reaction,”, “[…]” for “5 μl”
(§7) Plates are analyzed in a standard fluorescence plate reader (Teem or equivalent) using an excitation wavelength of 400 nm and emission wavelengths of 445 nm and 520 nm.

PAK2 = PAK2 (Homo sapiens, UniProt Q13177); experiment: Z'Lyte fluorescence-based (FRET) PAK kinase assay, PAK2
Sequence of PAK2 (Q13177 whole entry): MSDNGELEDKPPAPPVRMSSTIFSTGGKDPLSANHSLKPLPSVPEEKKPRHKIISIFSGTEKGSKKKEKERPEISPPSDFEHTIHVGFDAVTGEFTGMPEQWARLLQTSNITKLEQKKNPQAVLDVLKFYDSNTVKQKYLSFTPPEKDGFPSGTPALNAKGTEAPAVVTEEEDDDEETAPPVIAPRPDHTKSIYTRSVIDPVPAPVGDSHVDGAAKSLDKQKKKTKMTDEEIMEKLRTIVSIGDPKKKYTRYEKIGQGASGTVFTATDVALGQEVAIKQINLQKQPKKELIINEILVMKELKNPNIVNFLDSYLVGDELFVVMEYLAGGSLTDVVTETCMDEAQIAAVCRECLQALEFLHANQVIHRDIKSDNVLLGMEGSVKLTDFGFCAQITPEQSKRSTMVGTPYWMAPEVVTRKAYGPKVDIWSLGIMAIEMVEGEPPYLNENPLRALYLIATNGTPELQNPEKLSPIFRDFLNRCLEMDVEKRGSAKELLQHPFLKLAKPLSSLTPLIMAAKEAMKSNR
Description: as §1, §2, §3, §4, §5, §6
as §1, with “non-phosphorylated but” for “non-phosphorylated bat”, “peptide (Z'Lyte™” for “peptide (Z′Lyte™”, “assay platform” for “assay platform;”
as §2, with “mM MgCl2;” for “nM MgCl1;”
as §4, with “at Km” for “at Kin”, “[50 μMATP” for “[50 ┌M ATP”, “75 µM” for “75 ┌M”, “[…]” for “10 μl.”, “kinase reaction.” for “kinase reaction,”, “[…]” for “5 μl”
as §7

PAK3 = PAK3 (Homo sapiens, UniProt O75914); experiment: Z'Lyte fluorescence-based (FRET) PAK kinase assay, PAK3; details: 100 μM ATP
Sequence of PAK3 (O75914 whole entry): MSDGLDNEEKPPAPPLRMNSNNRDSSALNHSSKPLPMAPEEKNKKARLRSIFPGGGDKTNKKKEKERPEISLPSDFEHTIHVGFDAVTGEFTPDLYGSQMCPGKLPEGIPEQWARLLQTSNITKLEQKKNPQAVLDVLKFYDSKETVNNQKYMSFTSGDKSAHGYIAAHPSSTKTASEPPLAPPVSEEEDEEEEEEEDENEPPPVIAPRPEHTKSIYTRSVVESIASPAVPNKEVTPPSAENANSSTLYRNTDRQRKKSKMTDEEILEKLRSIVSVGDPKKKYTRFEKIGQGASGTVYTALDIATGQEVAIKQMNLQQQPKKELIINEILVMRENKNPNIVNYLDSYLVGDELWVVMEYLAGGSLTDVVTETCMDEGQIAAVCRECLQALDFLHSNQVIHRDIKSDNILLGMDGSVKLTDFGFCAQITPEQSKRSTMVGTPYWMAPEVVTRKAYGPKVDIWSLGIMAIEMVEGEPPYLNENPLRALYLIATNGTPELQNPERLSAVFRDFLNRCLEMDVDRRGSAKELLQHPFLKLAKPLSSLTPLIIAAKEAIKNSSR
Description: as §1, §2, §3, §4, §5, §6
as §1, with “non-phosphorylated but” for “non-phosphorylated bat”, “peptide (Z'Lyte™” for “peptide (Z′Lyte™”, “assay platform” for “assay platform;”
as §2, with “mM MgCl2;” for “nM MgCl1;”
as §4, with “at Km” for “at Kin”, “[50 μMATP” for “[50 ┌M ATP”, “75 µM” for “75 ┌M”, “[…]” for “10 μl.”, “kinase reaction.” for “kinase reaction,”, “[…]” for “5 μl”
as §7

PAK4 = PAK4 (Homo sapiens, UniProt O96013); experiment: Z'Lyte fluorescence-based (FRET) PAK kinase assay, PAK4; details: 5 μM ATP
Sequence of PAK4 (O96013 whole entry): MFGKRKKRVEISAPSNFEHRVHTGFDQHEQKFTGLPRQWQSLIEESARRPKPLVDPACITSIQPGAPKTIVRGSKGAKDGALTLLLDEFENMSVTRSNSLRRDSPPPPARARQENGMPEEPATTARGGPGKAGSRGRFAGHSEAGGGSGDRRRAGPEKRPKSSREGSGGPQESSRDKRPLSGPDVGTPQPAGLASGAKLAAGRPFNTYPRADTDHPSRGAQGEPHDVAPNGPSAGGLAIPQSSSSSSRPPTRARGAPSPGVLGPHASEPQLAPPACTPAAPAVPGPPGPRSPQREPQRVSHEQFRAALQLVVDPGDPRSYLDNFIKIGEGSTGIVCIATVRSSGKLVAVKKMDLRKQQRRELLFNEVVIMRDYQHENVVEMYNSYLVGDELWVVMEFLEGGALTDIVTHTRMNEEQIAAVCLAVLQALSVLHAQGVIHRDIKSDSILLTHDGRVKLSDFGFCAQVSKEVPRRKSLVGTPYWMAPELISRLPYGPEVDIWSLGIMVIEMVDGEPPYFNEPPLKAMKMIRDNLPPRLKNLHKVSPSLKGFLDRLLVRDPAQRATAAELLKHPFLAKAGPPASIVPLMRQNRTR
Description: as §1, §2, §3, §4, §5, §6
as §1, with “non-phosphorylated but” for “non-phosphorylated bat”, “peptide (Z'Lyte™” for “peptide (Z′Lyte™”, “assay platform” for “assay platform;”
as §2, with “mM MgCl2;” for “nM MgCl1;”
as §4, with “at Km” for “at Kin”, “[50 μMATP” for “[50 ┌M ATP”, “75 µM” for “75 ┌M”, “[…]” for “10 μl.”, “kinase reaction.” for “kinase reaction,”, “[…]” for “5 μl”
as §7

[1] = Table 1 of Example 100, 75 μM ATP
[2] = Table 1 of Example 29 (own compound numbering)
[3] = Table 1 of Example 29 (own compound numbering), 75 µM ATP

Sequence of PAK1 (Q13153 whole entry): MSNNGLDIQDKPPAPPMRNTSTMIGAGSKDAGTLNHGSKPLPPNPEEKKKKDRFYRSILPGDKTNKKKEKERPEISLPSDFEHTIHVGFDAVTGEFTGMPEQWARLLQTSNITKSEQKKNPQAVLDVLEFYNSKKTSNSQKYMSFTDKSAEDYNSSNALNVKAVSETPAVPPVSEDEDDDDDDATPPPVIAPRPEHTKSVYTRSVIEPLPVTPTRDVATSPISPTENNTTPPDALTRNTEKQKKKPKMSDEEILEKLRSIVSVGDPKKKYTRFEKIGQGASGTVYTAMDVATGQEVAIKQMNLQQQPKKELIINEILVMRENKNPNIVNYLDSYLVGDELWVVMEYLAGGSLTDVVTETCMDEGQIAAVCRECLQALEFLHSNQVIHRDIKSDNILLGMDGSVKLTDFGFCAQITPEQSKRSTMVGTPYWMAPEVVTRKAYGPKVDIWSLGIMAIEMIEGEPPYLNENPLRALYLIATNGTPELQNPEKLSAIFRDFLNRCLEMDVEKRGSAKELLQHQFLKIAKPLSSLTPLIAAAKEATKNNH

IC50 (PAK1; Table 1 of Example 100) [nM]	IC50 (PAK2; [1]) [nM]	IC50 (PAK3; Table 1 of Example 100) [nM]	IC50 (PAK4; Table 1 of Example 100) [nM]	IC50 (PAK1; [2]) [nM]	IC50 (PAK3; [2]) [nM]	IC50 (PAK4; [2]) [nM]	Compound	IC50 (PAK2; [3]) [nM]
< 1000	1000 to 10000	1000 to 10000	1000 to 10000				CN1CCN(c2ccc(Nc3ncc4ccc(=O)n(C5CCCC5)c4n3)cc2)CC1 [Compound 1]	
1000 to 10000	1000 to 10000	1000 to 10000	1000 to 10000				CN1CCN(c2ccc(Nc3ncc4ccc(=O)n(C5CCCc6ccccc65)c4n3)cc2)CC1 (stereo not shown) [Compound 5]	
< 1000	1000 to 10000	1000 to 10000	1000 to 10000				CN1CCN(c2ccc(Nc3ncc4ccc(=O)n(C5CCc6ccccc65)c4n3)cc2)CC1 (stereo not shown) [Compound 6]	
< 1000	< 1000	< 1000	< 1000				O=c1ccc2cnc(Nc3ccc(NC4CCCNC4)cc3)nc2n1Cc1ccccc1C(F)(F)F (stereo not shown) [Compound 7]	
< 1000	< 1000	< 1000	< 1000				O=c1ccc2cnc(Nc3ccc(NC4CCNCC4)cc3)nc2n1Cc1ccccc1C(F)(F)F [Compound 8]	
< 1000	< 1000	< 1000	< 1000				O=c1ccc2cnc(Nc3ccc(N4CCNCC4)cc3)nc2n1Cc1ccccc1C(F)(F)F [Compound 9]	
1000 to 10000	1000 to 10000	1000 to 10000	1000 to 10000				CN1CCN(c2ccc(Nc3ncc4ccc(=O)n([C@@H]5CCCc6ccccc65)c4n3)cc2)CC1 [Compound 10]	
< 1000	< 1000	< 1000	< 1000				O=c1ccc2cnc(Nc3ccc(OC4CCNCC4)cc3)nc2n1Cc1ccccc1C(F)(F)F [Compound 12]	
< 1000	< 1000	< 1000	< 1000				CN(c1ccc(Nc2ncc3ccc(=O)n(Cc4ccccc4C(F)(F)F)c3n2)cc1)C1CCCNC1 (stereo not shown) [Compound 13]	
< 1000	< 1000	< 1000	< 1000				O=c1ccc2cnc(Nc3ccc(OC4CCCNC4)cc3)nc2n1Cc1ccccc1C(F)(F)F (stereo not shown) [Compound 14]	
1000 to 10000	1000 to 10000	1000 to 10000	1000 to 10000				CN1CCN(c2ccc(Nc3ncc4ccc(=O)n(C5CCOc6ccccc65)c4n3)cc2)CC1 (stereo not shown) [Compound 15]	
> 10000	> 10000	> 10000	> 10000				CN(C)CC(c1ccccc1)n1c(=O)ccc2cnc(Nc3ccc(N4CCOCC4)cc3)nc21 (stereo not shown) [Compound 16]	
< 1000	1000 to 10000	1000 to 10000	< 1000				CN1CCN(c2ccc(Nc3ncc4ccc(=O)n(C5Cc6ccccc6C5)c4n3)cc2)CC1 [Compound 17]	
< 1000	< 1000	< 1000	< 1000				CN1CCN(c2ccc(Nc3ncc4ccc(=O)n(C5CCc6ccccc6C5)c4n3)cc2)CC1 (stereo not shown) [Compound 18]	
> 10000	> 10000	> 10000	> 10000				CN(C)CC(c1ccccc1)n1c(=O)ccc2cnc(Nc3ccc(N4CCN(C)CC4)cc3)nc21 (stereo not shown) [Compound 19]	
< 1000	< 1000	1000 to 10000	1000 to 10000				CN1CCN(c2ccc(Nc3ncc4ccc(=O)n(C5CCC(C)(C)c6ccccc65)c4n3)cc2)CC1 (stereo not shown) [Compound 20]	
< 1000	< 1000	1000 to 10000	< 1000				O=c1ccc2cnc(Nc3ccc(N4CCNCC4)c(F)c3)nc2n1C1Cc2ccccc2C1 [Compound 21]	
< 1000	< 1000	< 1000	< 1000				O=c1ccc2cnc(Nc3ccc(N4CCNCC4)c(F)c3)nc2n1C1CCc2ccccc2C1 (stereo not shown) [Compound 22]	
< 1000	< 1000		1000 to 10000				Cc1ccccc1Cn1c(=O)ccc2cnc(Nc3ccc(N4CCN(C)CC4)cc3)nc21 [Compound 39]	

IC50 (PAK1; Table 1 of Example 100) [nM]	IC50 (PAK2; [1]) [nM]	IC50 (PAK3; Table 1 of Example 100) [nM]	IC50 (PAK4; Table 1 of Example 100) [nM]	IC50 (PAK1; [2]) [nM]	IC50 (PAK3; [2]) [nM]	IC50 (PAK4; [2]) [nM]	Compound	IC50 (PAK2; [3]) [nM]
< 1000	< 1000		1000 to 10000				CN1CCN(c2ccc(Nc3ncc4ccc(=O)n(Cc5ccccc5C#N)c4n3)cc2)CC1 [Compound 40]	
< 1000	< 1000		1000 to 10000				CN1CCN(c2ccc(Nc3ncc4ccc(=O)n(Cc5ccccc5OC(F)(F)F)c4n3)cc2)CC1 [Compound 41]	
< 1000	< 1000	< 1000	< 1000				CN1CCN(c2ccc(Nc3ncc4ccc(=O)n(Cc5ccccc5C(F)(F)F)c4n3)cc2)CC1 [Compound 42]	
< 1000	< 1000	< 1000	< 1000				CN1CCN(c2ccc(Nc3ncc4ccc(=O)n(Cc5ccccc5SC(F)(F)F)c4n3)cc2)CC1 [Compound 43]	
< 1000	< 1000	< 1000	< 1000				CN1CCN(c2ccc(Nc3ncc4ccc(=O)n(Cc5ccccc5OC(F)F)c4n3)cc2)CC1 [Compound 44]	
1000 to 10000	1000 to 10000	1000 to 10000	1000 to 10000				Cc1cc(F)ccc1Cn1c(=O)ccc2cnc(Nc3ccc(N4CCN(C)CC4)cc3)nc21 [Compound 45]	
1000 to 10000	1000 to 10000	1000 to 10000	1000 to 10000				Cc1ccc(C)c(Cn2c(=O)ccc3cnc(Nc4ccc(N5CCN(C)CC5)cc4)nc32)c1 [Compound 46]	
				< 1000	< 1000	< 1000	CN1CCN(c2ccc(Nc3ncc4ccc(=O)n(Cc5c(F)cccc5C(F)(F)F)c4n3)cc2)CC1 [Compound 112]	
				< 1000	< 1000	1000 to 10000	O=c1ccc2cnc(Nc3ccc(N4CCNCC4)c(F)c3)nc2n1Cc1c(Cl)cccc1C1CC1 [Compound 137]	
				< 1000	< 1000	< 1000	CSc1cccc(F)c1Cn1c(=O)ccc2cnc(Nc3ccc(N4CCN(C)CC4)cc3)nc21 [Compound 138]	
				1000 to 10000		> 10000	CN1CCN(c2ccc(Nc3nccc(-c4ccc(O)nc4)n3)cc2)CC1 [Compound 143]	> 10000
				< 1000	1000 to 10000	< 1000	Cc1cc(Nc2nccc(-c3ccc(NCCN)nc3)n2)ccc1N1CCN(C)CC1 [Compound 152]	
				< 1000	< 1000	1000 to 10000	O=c1c(-c2ccccc2)cc2cnc(Nc3ccc(N4CCNCC4)cc3)nc2n1Cc1ccccc1C(F)(F)F [Compound 163]	
< 1000		< 1000	< 1000				CN1CCN(c2ccc(Nc3ncc4ccc(=O)n(Cc5c(F)cccc5C(F)(F)F)c4n3)cc2)CC1 [compound 58]	
< 1000		1000 to 10000	< 1000				Cc1cc(Nc2nccc(-c3ccc(NCCN)nc3)n2)ccc1N1CCN(C)CC1 [compound 83]	
< 1000		< 1000	1000 to 10000				O=c1c(-c2ccccc2)cc2cnc(Nc3ccc(N4CCNCC4)cc3)nc2n1Cc1ccccc1C(F)(F)F [compound 94]	
					< 1000	< 1000	CN1CCN(c2ccc(Nc3ncc4ccc(=O)n(Cc5ccccc5OC(F)(F)F)c4n3)cc2)CC1 [compound 97]	
< 1000		< 1000	< 1000				CSc1cccc(F)c1Cn1c(=O)ccc2cnc(Nc3ccc(N4CCN(C)CC4)cc3)nc21 [compound 99]	

Compound	IC50 (PAK1; Table 1 of Example 100) [nM]	IC50 (PAK2; [1]) [nM]	IC50 (PAK3; Table 1 of Example 100) [nM]	IC50 (PAK4; Table 1 of Example 100) [nM]	IC50 (PAK1; [2]) [nM]	IC50 (PAK3; [2]) [nM]	IC50 (PAK4; [2]) [nM]	IC50 (PAK2; [3]) [nM]
CN1CCN(c2ccc(Nc3ncc4ccc(=O)n(Cc5ccccc5)c4n3)cc2)CC1 [compound 80]					1000 to 10000		> 10000	1000 to 10000
